Laboratory results published in publication PMC9371265 (PLoS Pathogens, 2022).

Molecular target: T1, PrpN (Bacillus anthracis, UniProt A0A6L7HCQ6)
T1 construct: gene GBAA_0570
T1 sequence (A0A6L7HCQ6 1-234): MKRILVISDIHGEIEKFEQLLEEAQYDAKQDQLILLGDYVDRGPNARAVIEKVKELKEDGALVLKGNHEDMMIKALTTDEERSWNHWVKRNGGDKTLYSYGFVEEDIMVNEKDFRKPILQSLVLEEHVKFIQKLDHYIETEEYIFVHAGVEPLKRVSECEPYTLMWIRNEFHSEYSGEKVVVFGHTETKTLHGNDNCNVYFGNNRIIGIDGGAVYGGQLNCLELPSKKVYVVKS

O=[N+]([O-])c1ccc(OP(=O)(O)O)cc1 [p-nitrophenyl phosphate]
pNPP hydrolysis, absorbance at 405 nm: determined spectrophotometrically using para-nitrophenyl phosphate-pNPP (Sigma-Aldrich) as substrate
